Experiments:
[1] = Change over time of AcCh amount in aqueous pH solutions (standard sample); type: physicochemical; details: pH 4.1 to pH 3.1, after 12 days
Description: A method for stabilizing choline esters in eggplants was examined. […] Therefore, firstly, the concentration change over time of an AcCh standard sample was examined under neutral and acidic conditions. The neutral solution (pH 7.0) was a phosphate buffer solution, and the acidic solutions (pH 4.1, pH 3.6, pH 3.1, pH 2.6) were prepared by adding acetic acid; the pH solutions with an AcCh concentration of 1.9 mg/mL were allowed to remain at ambient temperature (23 to 25° C.) for 0, 3, 6, 12 days, and then the AcCh content was quantified.

humans = assay: Extrapolation of effective AcCh dose from SHR to humans by Kleiber's law; parameters: species or system human
From the text: (§1) This AcCh dose at which a blood pressure-lowering effect occurred in SHRs in normal condition upon oral ingestion was extrapolated to humans using Kleiber's law (Non-Patent Document 22). According to Kleiber's law, the mammalian metabolic rate is assumed to be proportional to the ¾ power of body weight, assuming the SHR weight to be 370 g and human weight to be 60 kg, the effective dose for humans is estimated to be 45.4 times the effective dose for SHRs.
(§2) When this AcCh dose was extrapolated to humans using Kleiber's law (Non-Patent Document 22), the upper limit of the daily human effective dose was 3.36×10^−6 mol (491 μg). Therefore, the daily effective dose for humans with high blood pressure having genetic characteristics such as SHRs was estimated to be in the range of 5 to 500 μg.

[2] = tested on: spontaneously hypertensive rats (SHR); assay: Repeated oral administration test of AcCh in SHR that did not fast; type: in vivo, rat; details: in SHRs, weight assumed 370 g
From the text: as §1, §2

[3] = tested on: spontaneously hypertensive rats (SHR); assay: Single oral administration test in spontaneously hypertensive rats (tail cuff blood pressure, heart rate); type: in vivo, rat; details: SHRs after 12 hours of fasting
Description: The lyophilized eggplant powder was prepared by washing a 'Senshu' water eggplant from […], Osaka-fu with water, by sterilizing the eggplant with hypochlorous acid, and by finely grinding the edible part after lyophilisation. […] In order to compare the blood pressure-lowering effect, an administration test of an AcCh standard sample of 1.00×10^-9 mol/kg was performed in the same manner and the systolic blood pressure was measured. To a control group only water was administered under the same conditions. 0, 3, 6, 9, and 24 hours after the oral administration, systolic blood pressure, diastolic blood pressure and heart rate were measured by the tail cuff method using the non-invasive blood pressure measuring instrument Softron BP-98A (Softron Co., Ltd., Tokyo).

[4] = tested on: spontaneously hypertensive rats (SHR); details: purified compound, SHRs, single oral administration; cited from earlier work
[5] = tested on: thoracic aorta ring specimens of SHR; assay: Vascular isometric tension measurement test (phenylephrine-constricted thoracic aorta rings); parameters: species or system rat; details: standard sample
Description: The ground eggplant samples used for the experiment were prepared as follows. […] 14-week-old male SHRs (body weight 320 to 346 g) were put to death by laparotomy and exsanguination under ether anaesthesia, and the thoracic aorta was quickly removed. The isolated aorta was immersed in physiological saline and the blood was thoroughly rinsed off, and then the connective tissue and adipose tissue attached to the blood vessel were removed in a Krebs-Henseleit solution to prepare a ring specimen with a width of about 2 to 3 mm. The resulting ring specimens were attached inside an organ bus of an isometric tension test device (UFER UC-05[…]., Kyoto) filled with Krebs-Henseleit solution of 37° C. (119 mM NaCl/4.7 mM KCl/1.1 mM KH2PO4/1.2 mM MgSO4/25 mM NaHCO3, pH 7.4) in which a mixed gas of 95% O2-5% CO2 was aerated, then a static tension of 1.0 g was applied and the ring specimens were stabilized for 60 minutes. […] The change in tension was measured and recorded by using a transducer (UFER UM-20, Iwashiya Kishimoto Ika Sangyo Co., Ltd.), the dilation rate (%) was calculated by equation (1) hereinafter, and the mean value±standard error (Mean±S. E.) was determined by repeating the test results three times. […]

Question: For CC(=O)OCC[N+](C)(C)C [AcCh, acetylcholine], which AcCh remaining [1] is on record?
Answer: Its AcCh remaining is at least 97%.

Question: And the “lower limit of the daily effective dose for humans” value (humans)?
Answer: Its value is 3.36e-08 mol.

Question: What about the “upper limit of the daily human effective dose” value (humans) of the same compound?
Answer: Its value is 3.36e-06 mol.

Question: And the “effective daily intake of AcCh causing a blood pressure lowering effect” value [2]?
Answer: The value was 3.7e-09 mol.

Question: What about the “effective daily dose of AcCh” value [3] of the same compound?
Answer: Its value is 1e-09 mol/kg.

Question: Which blood pressure-lowering effect [4] does the source give for CCCC(=O)OCC[N+](C)(C)C [BuCh, butyrylcholine] here?
Answer: The blood pressure-lowering effect was “blood pressure-lowering effect is shown”.

Question: Which “effect on blood vessels” value ([5]; 11 μg/mL) does the source give for O=C(/C=C/c1ccc(O)c(O)c1)O[C@@H]1C[C@](O)(C(=O)O)C[C@@H](O)[C@H]1O [Chlorogenic acid] here?
Answer: The value was “no effect on blood vessels was observed”.

Question: Which blood pressure-lowering effect [4] does the source give for CCC(=O)OCC[N+](C)(C)C [PrCh, propionylcholine] here?
Answer: Its blood pressure-lowering effect is “blood pressure-lowering effect is shown”.

Question: Which “effect on blood vessels” value ([5]; 4.8 μg/mL) does the source give for NCCCC(=O)O [γ-aminobutyric acid (GABA), γ-aminobutyric acid] here?
Answer: Its value is “no effect on blood vessels was observed”.
